Results from patent US6579881B2 (Eisai Co., Ltd., priority 1997, dated 2003).
Read-outs that look alike come from different tables or passages of the source.

How the values were obtained:
serotonin 2 receptor = serotonin 2 receptor (Rattus norvegicus, UniProt P14842); experiment: Binding test on [3H] ketanserin (serotonin 2 receptor); conditions: [3H] ketanserin 0.3 nM, receptor fraction of rat cerebral cortex; read-out: 5HT2
[1] = system: Straub's tail reaction (hyper-muscle tone in the tail); experiment: Morphine induced Straub's tail phenomenon in mice; format: in vivo; conditions: Mus musculus, male ddY mice, 15 min before morphine hydrochloride 12.5 mg/kg s.c., statistically significant (p<0.05)
α1 adrenalin receptor = experiment: Binding test on [3H] prazosin (α1 adrenalin receptor); design: species or system rat; conditions: [3H] prazosin about 0.2 nM, receptor fraction of rat cerebral cortex
serotonin 1A receptor = molecular target: T1, serotonin 1A receptor (Rattus norvegicus, UniProt P19327); experiment: Binding test on [3H] 8-hydroxy-dipropylaminotetralin (serotonin 1A receptor); conditions: [3H] 8-OH-DPAT 0.5 nM, receptor fraction of rat hippocampus; read-out: 5HT1a
T1 construct: To the receptor fraction of the hippocampus were added a test compound and 0.5 nM of [^3H]; 8-hydroxy-dipropylaminotetralin; from tissue; host or cells: SD rat hippocampus, membrane (receptor) fraction
T1 sequence (P19327 1-422): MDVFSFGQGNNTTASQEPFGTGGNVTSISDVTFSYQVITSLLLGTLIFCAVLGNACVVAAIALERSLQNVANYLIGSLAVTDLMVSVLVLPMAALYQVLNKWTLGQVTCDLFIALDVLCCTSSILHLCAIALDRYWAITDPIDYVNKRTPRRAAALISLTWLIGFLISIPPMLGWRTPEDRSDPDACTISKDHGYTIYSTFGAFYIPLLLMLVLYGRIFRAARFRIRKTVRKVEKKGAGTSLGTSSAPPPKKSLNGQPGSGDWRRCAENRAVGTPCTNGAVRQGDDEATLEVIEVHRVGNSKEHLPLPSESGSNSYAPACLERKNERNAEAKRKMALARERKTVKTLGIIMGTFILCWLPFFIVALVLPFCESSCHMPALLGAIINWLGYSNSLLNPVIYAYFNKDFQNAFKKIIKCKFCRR

[2] = po, p.o., read-out: minimal effective dose p.o.
[3] = ip, i.p., read-out: minimal effective dose i.p.

serotonin 2 receptor, sequence (P14842 whole entry): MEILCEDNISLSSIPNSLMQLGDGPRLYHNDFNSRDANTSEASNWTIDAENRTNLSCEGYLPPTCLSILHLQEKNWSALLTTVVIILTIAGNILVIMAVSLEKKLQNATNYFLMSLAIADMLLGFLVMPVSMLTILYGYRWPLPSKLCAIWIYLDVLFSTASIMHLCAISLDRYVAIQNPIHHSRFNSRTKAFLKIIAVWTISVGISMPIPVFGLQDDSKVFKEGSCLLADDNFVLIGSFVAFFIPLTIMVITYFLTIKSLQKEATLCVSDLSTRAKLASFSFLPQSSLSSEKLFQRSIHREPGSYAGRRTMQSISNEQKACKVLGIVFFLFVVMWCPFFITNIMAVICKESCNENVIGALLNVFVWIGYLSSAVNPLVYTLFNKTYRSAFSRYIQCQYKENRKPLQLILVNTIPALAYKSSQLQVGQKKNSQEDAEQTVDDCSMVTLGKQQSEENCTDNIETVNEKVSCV

| Ki (serotonin 2 receptor) [nM] | Ki (α1 adrenalin receptor) [nM] | Ki (serotonin 1A receptor) [nM] | melting point [°C] | SMILES | minimal effective dose [1, 2] [mg/kg] | minimal effective dose [1, 3] [mg/kg] |
| --- | --- | --- | --- | --- | --- | --- |
| 1.27 | 68.6 | 10.4 | – | OC(c1ccc2c(c1)N(C1CCN(CCc3ccc(F)cc3)CC1)CC2)c1ncccn1 (stereo not shown) [Example 197, 1-[1-(4-fluorophenethyl)piperidin-4-yl]-6-[1-hydroxy-1-(pyrimidin-2-yl)methyl]indoline] | 10 | – |
| 4.49 | 183 | 1.06 | – | O=C1CCC(=O)N1Cc1ccc2c(c1)N(C1CCN(CCc3ccc(F)cc3)CC1)CC2 [Example 204, 1-[1-(4-fluorophenethyl)piperidin-4-yl]-6-(succinimido-1-yl)methylindoline] | 3 | 3 |
| 6.8 | 75.3 | 2.9 | – | Fc1ccc(CCN2CCC(C3CCc4ccccc43)CC2)cc1 (stereo not shown) [Example 248, 1-[1-(4-fluorophenethyl)piperidin-4-yl]indan] | 30 | ≤ 10 |

More lines, now with the values behind:

| SMILES | Ki (serotonin 2 receptor) [nM] | Ki (α1 adrenalin receptor) [nM] | Ki (serotonin 1A receptor) [nM] | melting point [°C] | minimal effective dose [1, 2] [mg/kg] | minimal effective dose [1, 3] [mg/kg] |
| --- | --- | --- | --- | --- | --- | --- |
| COc1ccc2c(c1)CCCC2C1CCN(CCc2ccc(F)cc2)CC1 (stereo not shown) [Example 277, 1-[2-(4-fluorophenyl)ethyl]-4-(6-methoxy-1,2,3,4-tetrahydronaphthalen-1-yl)piperidine] | 3.9 | 354 | 22.8 | – | 30 | < 1 |
| CC(=O)NCc1ccc2ccn(C3CCN(CCc4ccc(F)cc4)CC3)c2c1 [Example 285, 1-[1-(4-fluorophenethyl)piperidin-4-yl]-6-acetamidomethylindole] | 1.39 | 26.8 | 0.44 | 127 to 128 | 1 | 1 |
